Experimental findings from patent US8389527B2, “Substituted imidazopyridazines useful as kinase inhibitors” (Bristol-Myers Squibb Company, priority 2008, dated 2013) are described below.

By IC50 is commonly meant the concentration that inhibits the measured activity by half.

Assay [1] deals with T1, recombinant CK2A1 (Homo sapiens, UniProt P68400).
T1 construct: purchased Invitrogen
Kind of assay: CK2 kinase assay (CK2A1), [γ-33P]ATP filter-binding. The class given is biochemical. The settings on record: recombinant CK2A1 10 nM, ATP 25 μM, 10 μM peptide substrate, 30° C. 1 h. The protocol: (§1) The effectiveness of compounds of the present invention as inhibitors of protein kinases can be readily tested by assays known to those skilled in the art. For example, in vitro protein kinase assays may be conducted with a relevant purified protein kinase and an appropriate synthetic substrate to determine the inhibitory activities of the compounds. […] Reaction mixtures were incubated at 30° C. for 1 h, and reaction products were captured by binding to phosphocellulose (P81) filter plates. Incorporation of radioactive phosphate into the peptide substrate was determined by liquid scintillation counting. The potency of compounds in inhibiting CK2 is expressed as IC50, defined as the concentrations of compounds required to inhibit the enzymatic activity by 50%.

Assay [2] deals with HCT116. Kind of assay: Cell proliferation inhibition assay (MTT, CellTiter96). The settings on record: Homo sapiens, HCT-116; HCT116 cells, 72 h with compound, MTT readout. The class given is cell-based. The protocol:
B. Cell Proliferation Inhibition Assay
Compounds were evaluated for their ability to inhibit cell proliferation, using an assay that measures mitochondrial metabolic activity, that is directly correlated with cell numbers. Cells were plated at 2000 cells/well in 96-well plates and were cultured for 24 h in RPMI-1640 supplemented with 2% fetal bovine serum, before test compounds were added. Compounds were diluted in culture medium such that the final concentration of dimethyl sulfoxide never exceeded 1%. Following the addition of compounds, the cells were cultured for an additional 72 h before cell viability was determined by measuring the conversion of 3-(4,5-dimethylthiazol-2-yl)-2,5-diphenyltetrazolium bromide (MTT) dye using the CellTiter96 kit (Promega).

For assay [3], the target named is T2, recombinant CK2A2 (Homo sapiens, UniProt P19784).
T2 construct: purchased Upstate Biotechnology
The assay can be described thus: CK2 kinase assay (CK2A2), [γ-33P]ATP filter-binding. Conditions: recombinant CK2A2 5 nM, ATP 5 μM, 10 μM peptide substrate, 30° C. 1 h. The class given is biochemical. The protocol: as §1

T2 sequence (P19784 whole entry): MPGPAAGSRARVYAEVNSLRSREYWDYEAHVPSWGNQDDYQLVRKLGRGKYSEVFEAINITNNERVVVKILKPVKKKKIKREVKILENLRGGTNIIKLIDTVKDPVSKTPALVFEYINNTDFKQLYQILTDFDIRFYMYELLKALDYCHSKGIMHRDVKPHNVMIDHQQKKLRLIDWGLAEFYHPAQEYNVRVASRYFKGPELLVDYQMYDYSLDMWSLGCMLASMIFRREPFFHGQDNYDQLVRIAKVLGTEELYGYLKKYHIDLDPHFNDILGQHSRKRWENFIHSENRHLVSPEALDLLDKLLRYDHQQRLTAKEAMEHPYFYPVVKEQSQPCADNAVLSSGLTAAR
T1 sequence (P68400 whole entry): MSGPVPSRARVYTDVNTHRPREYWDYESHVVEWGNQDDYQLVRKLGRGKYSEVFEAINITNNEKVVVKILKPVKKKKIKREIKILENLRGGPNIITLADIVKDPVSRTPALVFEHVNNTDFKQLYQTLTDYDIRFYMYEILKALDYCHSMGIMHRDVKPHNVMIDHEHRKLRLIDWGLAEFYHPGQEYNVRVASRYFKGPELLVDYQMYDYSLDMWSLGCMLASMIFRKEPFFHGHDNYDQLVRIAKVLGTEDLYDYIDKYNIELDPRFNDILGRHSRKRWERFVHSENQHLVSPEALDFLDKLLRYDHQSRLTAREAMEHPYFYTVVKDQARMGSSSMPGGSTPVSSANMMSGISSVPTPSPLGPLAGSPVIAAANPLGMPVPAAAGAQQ

With `CN(C)CCOc1ccc(Nc2cc(N[C@H]3CC[C@H](N)CC3)nn3c(C(=O)Nc4ccncc4F)cnc23)cc1` [Example 501, 6-((trans-4-aminocyclohexyl)amino)-8-((4-(2-(dimethylamino)ethoxy)phenyl)amino)-N-(3-fluoro-4-pyridinyl)imidazo[1,2-b]pyridazine-3-carboxamide], the figures for the IC50 in assay [1], in assay [2] and in assay [3] were 234 nM, 450 nM and 87 nM, respectively.

Consider `N[C@H]1CC[C@H](Nc2cc(Nc3ccccc3)c3ncc(C(=O)Nc4ccncn4)n3n2)CC1` [Example 518, 6-((trans-4-aminocyclohexyl)amino)-8-anilino-N-4-pyrimidinylimidazo[1,2-b] pyridazine-3-carboxamide], for which the half-inhibitory concentration (IC50) in assay [1] is 58 nM; in assay [2], 170 nM; in assay [3], 42 nM.

As for `O=C(Nc1ccncc1F)c1cnc2c(NC3CC3)cc(N[C@H]3CC[C@H](NCC(O)CO)CC3)nn12` (stereo partly drawn) [Example 524, 8-(cyclopropylamino)-6-((trans-4-((2,3-dihydroxypropyl)amino)cyclohexyl)amino)-N-(3-fluoro-4-pyridinyl)imidazo [1,2-b]pyridazine-3-carboxamide], the IC50 amounted to 21 nM in assay [1], 1150 nM in assay [2] and 4 nM in assay [3].

`NCCN[C@H]1CC[C@H](Nc2cc(NC3CC3)c3ncc(C(=O)Nc4ccnc(F)c4)n3n2)CC1` [Example 526, 6-((trans-4-((2-aminoethyl)amino)cyclohexyl)amino)-8-(cyclopropylamino)-N-(2-fluoro-4-pyridinyl)imidazo [1,2-b]pyridazine-3-carboxamide]: the IC50 is 153 nM in assay [1], over 2500 nM in assay [2] and 61 nM in assay [3].

In the case of `O=C(Nc1ccnc(Cl)c1)c1cnc2c(NC3CC3)cc(N[C@H]3CC[C@H](NCCO)CC3)nn12` [Example 531, N-(2-chloro-4-pyridinyl)-8-(cyclopropylamino)-6-((trans-4-((2-hydroxyethyl)amino)cyclohexyl)amino) imidazo[1,2-b]pyridazine-3-carboxamide], the results for the IC50 in assay [1], in assay [2] and in assay [3] were 28 nM, 260 nM and 3 nM, respectively.

With `O=C(Nc1ccnc(Cl)c1)c1cnc2c(NC3CC3)cc(N[C@H]3CC[C@H](N(CCO)CCO)CC3)nn12` [Example 534, 6-((trans-4-(bis(2-hydroxyethyl)amino)cyclohexyl)amino)-N-(2-chloro-4-pyridinyl)-8-(cyclopropylamino)imidazo [1,2-b]pyridazine-3-carboxamide], the figures for the IC50 in assay [1], in assay [2] and in assay [3] were 559 nM, 1610 nM and 145 nM, respectively.

With `CC(C)CN[C@H]1CC[C@H](Nc2cc(NC3CC3)c3ncc(C(=O)Nc4ccnc(Cl)c4)n3n2)CC1` [Example 538, N-(2-chloro-4-pyridinyl)-8-(cyclopropylamino)-6-((trans-4-(isobutylamino)cyclohexyl)amino)imidazo [1,2-b]pyridazine-3-carboxamide], the IC50 in assay [1] was 331 nM; in assay [2] it was 340 nM; in assay [3] it was 42 nM.

Turning to `Cc1cc(Nc2cc(N[C@H]3CC[C@H](N)CC3)nn3c(C(=O)Nc4ccnc(Cl)c4)cnc23)nn1C` [Example 542, 6-((trans-4-aminocyclohexyl)amino)-N-(2-chloro-4-pyridinyl)-8-((1,5-dimethyl-1H-pyrazol-3-yl)amino)imidazo[1,2-b]pyridazine-3-carboxamide], the IC50 in assay [1] is 71 nM; in assay [2], 290 nM; in assay [3] it was 18 nM.

As for `O=C(Nc1ccnc(Cl)c1)c1cnc2c(Nc3ccon3)cc(N[C@H]3CC[C@H](O)CC3)nn12` [Example 549, N-(2-chloro-4-pyridinyl)-6-((trans-4-hydroxycyclohexyl)amino)-8-(3-isoxazolylamino) imidazo[1,2-b]pyridazine-3-carboxamide], the 50% inhibitory concentration (IC50) was 26.3 nM in assay [1], 20 nM in assay [2] and 0.03 nM in assay [3].

For the compound `Cc1cc(Nc2cc(N[C@H]3CC[C@H](O)CC3)nn3c(C(=O)Nc4ccnc(Cl)c4)cnc23)nn1C` [Example 553, N-(2-chloro-4-pyridinyl)-8-((1,5-dimethyl-1H-pyrazol-3-yl)amino)-6-((trans-4-hydroxycyclohexyl)amino)imidazo[1,2-b]pyridazine-3-carboxamide], the half-maximal inhibitory concentration (IC50) came out at 19.6 nM in assay [1], 40 nM in assay [2] and 2.1 nM in assay [3].

Turning to `CC(C)n1ccc(Nc2cc(N[C@H]3CC[C@H](NC(=O)CC#N)CC3)nn3c(C(=O)Nc4ccnc(Cl)c4)cnc23)n1` [Example 559, N-(2-chloro-4-pyridinyl)-6-((trans-4-((cyanoacetyl)amino)cyclohexyl)amino)-8-((1-isopropyl-1H-pyrazol-3-yl)amino)imidazo[1,2-b] pyridazine-3-carboxamide], the IC50 in assay [1] turned out to be 5.5 nM; in assay [2] it was 80 nM; in assay [3] it was 1 nM.

Consider `Cc1cc(Nc2cc(N[C@H]3CC[C@H](NC(=O)CC#N)CC3)nn3c(C(=O)Nc4ccnc(Cl)c4)cnc23)no1` [Example 560, N-(2-chloro-4-pyridinyl)-6-((trans-4-((cyanoacetyl)amino)cyclohexyl)amino)-8-((5-methyl-3-isoxazolyl)amino) imidazo[1,2-b]pyridazine-3-carboxamide], for which the IC50 in assay [1] amounted to 12.5 nM; in assay [2], 870 nM; in assay [3], 0.8 nM.

`N#CCC(=O)N[C@H]1CC[C@H](Nc2cc(Nc3nccs3)c3ncc(C(=O)Nc4ccnc(Cl)c4)n3n2)CC1` [Example 562, N-(2-chloro-4-pyridinyl)-6-((trans-4-((cyanoacetyl)amino)cyclohexyl)amino)-8-(1,3-thiazol-2-ylamino)imidazo [1,2-b]pyridazine-3-carboxamide]: the IC50 in assay [1] is 9.7 nM; in assay [2] it was 60 nM; in assay [3], 1.2 nM.

In the case of `O=C(Nc1ccnc(Cl)c1)c1cnc2c(NC3CC3)cc(NC3CCSCC3)nn12` [Example 571, N-(2-chloro-4-pyridinyl)-8-(cyclopropylamino)-6-(tetrahydro-2H-thiopyran-4-ylamino)imidazo[1,2-b]pyridazine-3-carboxamide], the IC50 amounted to 428 nM in assay [1], 890 nM in assay [2] and 97 nM in assay [3].

For `O=C(Nc1ccnc(Cl)c1)c1cnc2c(NC3CC3)cc(NC3CC[S+]([O-])CC3)nn12` (stereo not drawn) [Example 572, 4-((3-((2-chloro-4-pyridinyl)carbamoyl)-8-(cyclopropylamino)imidazo[1,2-b]pyridazin-6-yl)amino)tetrahydro-2H-thiopyranium-1-olate], the IC50 is 306 nM in assay [1], 800 nM in assay [2] and 73 nM in assay [3].
